Test results as given in ChEMBL document CHEMBL3853263, “Effect of intercalator and Lewis acid-base branched peptide complex formation: boosting affinity towards HIV-1 RRE RNA” (Medchemcomm, 2016).
Numbered stars: 1 amine (or outer) side, 2 acyl side, 3 side chain; on linkers, the order of the positions; unused ones are H or OH. Peptide text beside a SMILES is read from it. Suc = O=C(CCC(=O)[*:2])[*:1]

Key:
[1] = Binding affinity to HIV1 HXB3 RRE66 RNA; set-up: species or system Human immunodeficiency virus 1
[2] = Binding affinity to HIV1 wild type [32P]-labeled RRE-2B RNA after 30 mins by electrophoretic mobility shift assay; set-up: species or system Human immunodeficiency virus 1

SMILES	Kd [1]	Kd [2]
NCC1O[C@H](O[C@H]2[C@@H](O)[C@H](O[C@@H]3[C@@H](O)[C@H](N)C[C@H](N)[C@H]3O[C@H]3O[C@H](CN)[C@@H](O)[C@H](O)[C@H]3N)O[C@@H]2CNc2c3ccccc3nc3ccccc23)[C@H](N)[C@@H](O)[C@@H]1O (some centres not stated)	2.4 nM	–
C[C@H](NC(=O)[C@H](C)NC(=O)[C@H](C)NC(=O)[C@H](CCCNC(=N)N)NC(=O)[C@H](CCC(N)=O)NC(=O)[C@H](CCCNC(=N)N)NC(=O)[C@H](CCC(=O)O)NC(=O)[C@H](CCCNC(=N)N)NC(=O)[C@H](Cc1c[nH]c2ccccc12)NC(=O)[C@H](CCCNC(=N)N)NC(=O)[C@H](CCCNC(=N)N)NC(=O)[C@H](CCCNC(=N)N)NC(=O)[C@H](CCCNC(=N)N)NC(=O)[C@H](CC(N)=O)NC(=O)[C@H](CCCNC(=N)N)NC(=O)[C@H](CCCNC(=N)N)NC(=O)[C@H](C)NC(=O)[C@H](CCC(N)=O)NC(=O)[C@H](CCCNC(=N)N)NC(=O)[C@@H](NC(=O)CCC(=O)O)[C@@H](C)O)C(=O)N[C@@H](C)C(=O)N[C@@H](CCCNC(=N)N)C(=O)O (Suc-TRQARRNRRRRWRERQRAAAAR-OH)	–	100 nM
